Results from patent US20250230151A1, “COMPOUNDS FOR CANCERS DRIVEN BY BRAF MUTATION” (THE BOARD OF TRUSTEES OF THE UNIVERSITY OF ILLINOIS, priority 2021, published 2025).
Read-outs that look alike come from different tables or passages of the source.

Key:
HT29 cells = assay: 72-hour cell viability assay (Alamar Blue), HT29; format: cell-based; conditions: Homo sapiens, HT-29, V600E BRAF, colon
Experimental: (§1) Cell Culture and reagents. All cell lines were grown in a 37° C., 5% CO2, humidified environment, in media containing 1% penicillin/streptomycin. Cell culture conditions are as follows: MDCK cells transfected with MDR1 (or ABCB1) were obtained from the Netherlands Cancer Institute (Amsterdam, The Netherlands) and maintained in DMEM with 10% fetal bovine serum (FBS, Gemini). Traditional cell lines A375, CHL-1, B16F10, and U118MG were grown in DMEM with 10% FBS, SK-MEL-28, U87 and T98G in EMEM with 10% FBS, AM-38 in EMEM with 20% HI-FBS (Gibco), HT29 in McCoy's 5A with 10% FBS, HCT116 in RPMI with 10% FBS. Compounds were dissolved in DMSO (1% final concentration, Sigma-Aldrich) for cell culture studies.
(§2) Cell viability assays. Cells were harvested, seeded in a 96-well plate and allowed to adhere overnight. Compound was added to each well in DMSO (1% final concentration). Cells were incubated for 72 hours before viability was assessed by the Alamar Blue Assay. Raptinal ([…]) was used as a dead control.

A375 cells = assay: 72-hour cell viability assay (Alamar Blue), A375; format: cell-based, human; conditions: Homo sapiens; for IC50: 72-hour incubation, Alamar Blue, V600E BRAF
Experimental: as §1, §2

P-gp = target: T1, P-gp (Homo sapiens, UniProt P08183); assay: MDR1-MDCK P-gp transwell bidirectional transport assay; format: in vitro ADME; conditions: 10 μM, 90 min; for Papp A→B at 90 min, 10 µM / Papp B→A at 90 min, 10 µM / efflux ratio at 90 min, 10 µM: dog, MDCK-MDR1, MDR1-MDCK; for efflux ratio at 90 min, 10 µM: read-out: ER (efflux ratio) (converted)
T1 construct: host or cells: MDCK (MDR1-MDCK)
Experimental: A novel compound collection composed of complex and diverse compounds derived from natural products, termed “Complexity-to-Diversity Collection” was employed. […] The CtD compounds were evaluated by the efflux pump and their permeability using the P-gp transwell assay using adapted and optimized known protocols. Compound transport across epithelial cells overexpressing P-gp from basolateral-to-apical and apical-to-basolateral directions were quantified to calculate permeability and efflux ratio.
P-gp transwell bidirectional transport assays. Unless noted otherwise, the transport assay was performed in triplicate in batches of 16 or 24 test compounds, with each batch containing quinidine as a substrate control and propranolol as a non-substrate control. MDR1-MDCK cells were plated at a density of 300,000 cells/cm^2 onto 96-well Falcon™ Multiwell Insert System with 1 µm pore polycarbonate filters with angled-bottom receiver plates (Coming) and were fed with the cell growth medium on day 2.
The donor solution was prepared by adding 1 mM DMSO stocks of compounds to make the final concentration […], and the receiver solution was prepared with equivalent volume of DMSO to make 1% DMSO in final assay chamber volumes.
After 80-96 hours since seeding, the growth media on both sides was aspirated. To the transwell plate (apical side), 50 μL of receiver and donor solutions prepared on a 96-well plate were added, and it was placed on top of a separate angled-bottom 96-well plate (basolateral side) containing 260 μL of receiver and donor solutions.
Following 90 minutes of incubation at 37° C. with shaking at 90 rpm, 20 μL aliquot of samples were taken from both the donor and receiver chambers, and the apical and basolateral sides. Aliquots of 4 test compounds were pooled for each category: apical-donor, apical-receiver, basolateral-donor, basolateral-receiver. To measure CO and mass balance, initial donor samples from both apical and basolateral side were set aside from the assay plate. Acetonitrile twice the volume of pooled samples was added and mixed thoroughly, and precipitated proteins were removed by centrifugation at 20,000 r.c.f for 10 minutes.
To ascertain the MDCK monolayer integrity, the solution on apical side contained 100 µM Lucifer Yellow (Millipore-Sigma). After 90 minutes of compound transport, Lucifer Yellow concentration in the basal well was measured using SpectraMax M3 (Molecular Devices) set to an excitation wavelength of 430 nm and an emission wavelength of 540 nm.
Samples were analyzed with the 5500 QTRAP LC/MS/MS system (AB Sciex) with a 1200 series HPLC system (Agilent Technologies) including a degasser, an autosampler, and a binary pump. The liquid chromatography separation was performed on an Agilent SB-Aq column (4.6×50 mm, 5 μm) (Agilent Technologies) with mobile phase A (0.1% formic acid in water) and mobile phase B (0.1% formic acid in acetonitrile). The flow rate was 0.3 ml min^−1. The linear gradient was optimized for each compound. The autosampler was set at 5° C. The injection volume was 15 μL. Mass spectra were acquired with both positive electrospray ionization at the ion spray voltage of 5,500 V and negative electrospray ionization at the ion spray voltage of −4,500 V. The source temperature was 450° C. The curtain gas, ion source gas 1, and ion source gas 2 were 33, 50 and 65, respectively. Multiple reaction monitoring was used to quantify metabolites.
Efflux data calculations.

U118MG cells = assay: 72-hour cell viability assay (Alamar Blue), U118MG; format: cell-based; conditions: Homo sapiens, U-118-MG, WT BRAF
Experimental: as §1, §2

AM-38 cells = assay: 72-hour cell viability assay (Alamar Blue), AM-38; format: cell-based; conditions: Homo sapiens, AM-38, V600E BRAF, glioma
Experimental: as §1, §2

B16F10 cells = assay: 72-hour cell viability assay (Alamar Blue), B16F10; format: cell-based; conditions: Mus musculus, B16-F10, WT BRAF, read-out: B16F10 IC50
Experimental: as §1, §2

HCT116 cells = assay: 72-hour cell viability assay (Alamar Blue), HCT116; format: cell-based; conditions: Homo sapiens, HCT-116, WT BRAF
Experimental: as §1, §2

U87 cells = assay: 72-hour cell viability assay (Alamar Blue), U87; format: cell-based; conditions: Homo sapiens, WT BRAF
Experimental: as §1, §2

CHL-1 cells = assay: 72-hour cell viability assay (Alamar Blue), CHL-1; format: cell-based; conditions: Homo sapiens, CHL-1, WT BRAF
Experimental: as §1, §2

T98G cells = assay: 72-hour cell viability assay (Alamar Blue), T98G; format: cell-based; conditions: Homo sapiens, T98G, WT BRAF, read-out: T98G IC50
Experimental: as §1, §2

SK-MEL-28 cells = assay: 72-hour cell viability assay (Alamar Blue), SK-MEL-28; format: cell-based; conditions: Homo sapiens, SK-MEL-28, V600E BRAF, melanoma
Experimental: as §1, §2

[1] = Blood-brain barrier penetrance, brain and serum levels after single IV injection; format: in vivo; conditions: CD-1, mouse, 60 min after single 25 mg/kg IV injection, read-out: brain-to-serum ratio
Experimental: Blood-brain barrier penetrance P-gp in vivo assays. All experimental procedures were reviewed and approved by the University of Illinois Institutional Animal Care and Use Committee (Protocol number: 19191). CD-1 mice were purchased from Charles River and acclimated for 4-7 days before use. Mice were administered elacridar or its vehicle at 2.5 mg/kg via lateral tail vein injection. Thirty-minutes post injection, mice were then treated with compounds at 25 mg/kg intravenously now in the other tail vein. At each time point, mice were sacrificed and blood was collected by lacerating the right auricle with iris scissors. An 18-gauge angiocatheter was inserted through the left ventricle, and all residual circulatory volume was removed by perfusing 0.9% saline solution via an analog peristaltic pump. Brains were harvested from the cranial vault and flash frozen. Blood samples were centrifuged at 13,000 ref for 10 minutes and the supernatant serum was stored at −80° C. until analysis. Brain samples were homogenized in ice-cold methanol and centrifuged first at 2000 ref for three minutes and then 13,000 ref for ten minutes and supernatant and tissue debris were separated and stored at −80° C. The resultant supernatant and serum were analyzed by LC-MS/MS to determine compound concentrations. […] All compounds were administered at 5 mL/kg.

[2] = tested on: MAPK signaling (phospho-MEK1/2, phospho-ERK1/2) in A375 cells; assay: Immunoblotting of MEK1/2 and ERK1/2 phosphorylation, A375; format: cell-based, human; conditions: A375, highest concentrations (10 μM), 24 h
Experimental: Immunoblotting. Cells were lysed using RIPA buffer containing phosphatase (BioVision) and protease inhibitor cocktail (Calbiochem). Protein concentration was determined using the BCA assay (Pierce). Cell lysates containing […] of protein were loaded into each lane of 4% to 20% gradient gels (Bio-Rad) for SDS-PAGE. Proteins were transferred onto PDVF membrane for Western blot analysis. Blots were blocked with BSA for one hour followed by incubation with primary antibody overnight (dilution according to manufacturer's protocols), and then secondary antibody was incubated for one hour. Blots were then imaged with a ChemiDoc Touch (Bio-Rad) after incubation with SuperSignal West Pico Solution (ThermoFischer) following manufacturer's protocols. All antibodies were purchased from Cell Signaling Technology: p-ERK (9101S), ERK (4695S), p-MEK (9121S), MEK (8727S), vinculin (13901S) Rabbit IgG-HRP (7074), […] (5125).

[3] = colon, read-out: HCT116 (WT) IC50

T1 sequence (P08183 whole entry): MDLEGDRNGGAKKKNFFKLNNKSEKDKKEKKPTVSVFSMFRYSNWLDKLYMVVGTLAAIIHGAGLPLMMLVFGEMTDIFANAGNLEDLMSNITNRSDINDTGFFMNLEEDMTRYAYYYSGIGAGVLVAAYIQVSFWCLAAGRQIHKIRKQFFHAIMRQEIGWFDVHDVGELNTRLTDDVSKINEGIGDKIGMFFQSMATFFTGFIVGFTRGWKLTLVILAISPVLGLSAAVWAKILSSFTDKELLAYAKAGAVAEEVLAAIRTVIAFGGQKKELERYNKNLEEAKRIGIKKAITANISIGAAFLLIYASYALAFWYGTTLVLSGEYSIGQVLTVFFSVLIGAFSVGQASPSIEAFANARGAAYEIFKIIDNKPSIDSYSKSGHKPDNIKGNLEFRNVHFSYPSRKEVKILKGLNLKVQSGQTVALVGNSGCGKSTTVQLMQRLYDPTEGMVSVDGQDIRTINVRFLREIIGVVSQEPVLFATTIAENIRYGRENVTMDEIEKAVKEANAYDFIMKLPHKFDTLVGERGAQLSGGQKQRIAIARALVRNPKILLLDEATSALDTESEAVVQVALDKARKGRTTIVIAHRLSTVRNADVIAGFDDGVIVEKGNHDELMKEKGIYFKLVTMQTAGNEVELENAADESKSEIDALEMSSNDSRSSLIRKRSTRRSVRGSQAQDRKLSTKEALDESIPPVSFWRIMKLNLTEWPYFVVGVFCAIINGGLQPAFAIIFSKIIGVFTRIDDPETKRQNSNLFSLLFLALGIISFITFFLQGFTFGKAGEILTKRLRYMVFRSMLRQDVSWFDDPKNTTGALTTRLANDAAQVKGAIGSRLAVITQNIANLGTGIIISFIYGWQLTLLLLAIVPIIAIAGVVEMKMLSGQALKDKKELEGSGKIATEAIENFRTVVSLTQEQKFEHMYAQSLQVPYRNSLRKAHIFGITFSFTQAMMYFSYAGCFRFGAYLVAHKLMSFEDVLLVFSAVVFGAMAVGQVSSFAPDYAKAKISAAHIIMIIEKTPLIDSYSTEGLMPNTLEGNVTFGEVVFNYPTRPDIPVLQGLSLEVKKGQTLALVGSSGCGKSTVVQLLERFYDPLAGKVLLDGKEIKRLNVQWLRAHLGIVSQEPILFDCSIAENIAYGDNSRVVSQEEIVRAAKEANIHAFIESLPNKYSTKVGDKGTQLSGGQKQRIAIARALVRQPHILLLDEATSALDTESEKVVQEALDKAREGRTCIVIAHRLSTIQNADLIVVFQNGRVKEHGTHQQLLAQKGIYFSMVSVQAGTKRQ

Row | SMILES | Papp A→B at 90 min, 10 µM (P-gp) | Papp B→A at 90 min, 10 µM (P-gp) | efflux ratio at 90 min, 10 µM (P-gp) | IC50 (HCT116 cells; [3]) | IC50 (A375 cells; A-375, 72 h) | IC50 (SK-MEL-28 cells) | also measured
1 | CCCS(=O)(=O)Nc1ccc(F)c(C(=O)c2c[nH]c3ncc(-c4ccc(Cl)cc4)cc23)c1F [Vemurafenib, reference compound] | 0.667 ± 0.11 ×10⁻⁶ cm/s | 3.81 ± 0.063 ×10⁻⁶ cm/s | 5.92 ± 0.77 | 27000 nM | – | – | IC50 (HT29 cells): 240 ± 61.7 nM; IC50 (A375 cells; A-375): 331 ± 93 nM; IC50 (U118MG cells; glioma, read-out: U118MG (WT) IC50): > 10000 nM; IC50 (U118MG cells; read-out: U118MG IC50): > 10000 nM; IC50 (AM-38 cells): 344 ± 59.3 nM; IC50 (B16F10 cells): > 10000 nM; IC50 (HCT116 cells; read-out: HCT116 IC50): > 10000 nM; IC50 (U87 cells; U-87 MG, read-out: U87 IC50): > 10000 nM; IC50 (U87 cells; glioma, read-out: U87 (WT) IC50): > 10000 nM; IC50 (CHL-1 cells; melanoma, read-out: CHL-1 (WT) IC50): > 10000 nM; IC50 (CHL-1 cells; read-out: CHL-1 IC50): > 10000 nM; IC50 (T98G cells): > 10000 nM
2 | CCCS(=O)(=O)Nc1cc(Cl)cc(-c2nc(C(C)(C)C)sc2-c2ccnc(NCC(C)C(F)C(=O)O)n2)c1F (stereo not drawn) [8-41, 4-((4-(2-(tert-butyl)-4-(5-chloro-2-fluoro-3-(propylsulfonamido)phenyl)thiazol-5-yl)pyrimidin-2-yl)amino)-2-fluoro-3-methylbutanoic acid] | – | – | – | > 1000 nM | 301 ± 39.9 nM | 246 ± 8.73 nM | –
3 | CCCS(=O)(=O)Nc1ccc(F)c(C(=O)c2c[nH]c3ncc(Cl)cc23)c1F [PLX4720, reference compound] | – | – | – | – | – | – | Kp at 60 min [1]: 0.0014 to 0.0069; inhibition of ERK1/2 phosphorylation after 24 h [2]: diminished inhibition
4 | COC(=O)N[C@@H](C)CNc1nccc(-c2cn(C(C)C)nc2-c2cc(Cl)cc(NS(C)(=O)=O)c2F)n1 [Encorafenib, reference compound] | 1.32 ± 0.602 ×10⁻⁶ cm/s | 14.7 ± 1.8 ×10⁻⁶ cm/s | – | – | 5.17 ± 0.412 nM | – | ER (efflux ratio) (P-gp; MDR1-MDCK): 21.8; Kp at 60 min [1]: 0.0014 to 0.0069
5 | CCCS(=O)(=O)Nc1cc(Cl)cc(-c2nc(C(C)(C)C)sc2-c2ccnc(NCC[C@@H](C)CC(=O)O)n2)c1F [8-43, (R)-5-((4-(2-(tert-butyl)-4-(5-chloro-2-fluoro-3-(propylsulfonamido)phenyl)thiazol-5-yl)pyrimidin-2-yl)amino)-3-methylpentanoic acid] | – | – | – | 5130 ± 382 nM | 38.2 ± 3.29 nM | 51.1 ± 1.35 nM | –
6 | CC(C)(C)c1nc(-c2cccc(NS(=O)(=O)c3c(F)cccc3F)c2F)c(-c2ccnc(CCCC(=O)O)n2)s1 [6-191, 4-(4-(2-(tert-butyl)-4-(3-((2,6-difluorophenyl)sulfonamido)-2-fluorophenyl)thiazol-5-yl)pyrimidin-2-yl)butanoic acid] | – | 1.45 ± 0.172 ×10⁻⁶ cm/s | – | – | 558 ± 118 nM | – | Emax (A375 cells; A-375, A375, 72-hour incubation): 60%
7 | CC(C)(C)c1nc(-c2cccc(NS(=O)(=O)c3cc(C(F)(F)F)ccc3C(F)(F)F)c2F)c(-c2ccnc(NCCCCC(=O)O)n2)s1 [6-173, 5-((4-(4-(3-((2,5-bis(trifluoromethyl)phenyl)sulfonamido)-2-fluorophenyl)-2-(tert-butyl)thiazol-5-yl)pyrimidin-2-yl)amino)pentanoic acid] | – | 0.46 ± 0.086 ×10⁻⁶ cm/s | – | – | > 50000 nM | – | –
8 | CC(C)(C)c1nc(-c2cccc(NS(=O)(=O)c3c(F)cccc3F)c2F)c(-c2ccnc(N[C@H]3CC[C@@H](C(=O)O)CC3)n2)s1 [6-85, (1s,4s)-4-((4-(2-(tert-butyl)-4-(3-((2,6-difluorophenyl)sulfonamido)-2-fluorophenyl)thiazol-5-yl)pyrimidin-2-yl)amino)cyclohexane-1-carboxylic acid] | 0.709 ± 0.045 ×10⁻⁶ cm/s | 2.26 ± 0.32 ×10⁻⁶ cm/s | 3.22 ± 0.54 | – | 474 ± 11.8 nM | – | –
9 | CC(C)(C)c1nc(-c2cccc(NS(=O)(=O)c3c(F)cccc3F)c2F)c(-c2ccnc(Nc3ccc(C(=O)O)cc3)n2)s1 [6-77, 4-((4-(2-(tert-butyl)-4-(3-((2,6-difluorophenyl)sulfonamido)-2-fluorophenyl)thiazol-5-yl)pyrimidin-2-yl)amino)benzoic acid] | 1.58 ± 0.335 ×10⁻⁶ cm/s | 1.45 ± 0.077 ×10⁻⁶ cm/s | 0.984 ± 0.164 | – | > 1000 nM | – | –
10 | CCCS(=O)(=O)Nc1cc(Cl)cc(-c2nc(C(C)(C)C)sc2-c2ccnc(NCC(C)CC(=O)O)n2)c1F (stereo not drawn) [6-265, 4-((4-(2-(tert-butyl)-4-(5-chloro-2-fluoro-3-(propylsulfonamido)phenyl)thiazol-5-yl)pyrimidin-2-yl)amino)-3-methylbutanoic acid] | – | – | – | 8840 nM | 113 ± 10.7 nM | 124 ± 4.86 nM | –
